Source: ChEMBL document CHEMBL1201862, “PubChem BioAssay data set” (2004)
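Test compounds were applied to cells in 96-well plates for 48 hours at 5 doses. Here, GI50 denotes the concentration required for 50% inhibition of growth.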 Active and inactive are the calls of the source. Rule as the data show it: active = GI50 up to about 1.1 µM and inactive = higher.

Tests used:
Assay in all cases: NCI tumour cell line growth inhibition, 48 h
SK-OV-3 = test system: SK-OV-3
SNB-19 = test system: SNB-19
A498 = test system: A498
M14 = test system: M14
OVCAR-4 = test system: OVCAR-4
EKVX = test system: EKVX
HL-60 = test system: HL-60
HOP-62 = test system: HOP-62
SF-268 = test system: SF-268
CCRF-CEM = test system: CCRF-CEM
LOX IMVI = test system: LOX IMVI
NCI-H460 = test system: NCI-H460
SN12C = test system: SN12C
IGROV-1 = test system: IGROV-1
SK-MEL-2 = test system: SK-MEL-2
SK-MEL-28 = test system: SK-MEL-28
OVCAR-3 = test system: OVCAR-3
COLO 205 = test system: COLO 205
MDA-MB-435 = test system: MDA-MB-435
PC-3 = test system: PC-3

Row | Structure (SMILES) | GI50 (SK-OV-3) | GI50 (SNB-19) | GI50 (A498) | GI50 (M14) | GI50 (OVCAR-4) | GI50 (EKVX) | GI50 (HL-60) | GI50 (HOP-62) | GI50 (SF-268) | GI50 (CCRF-CEM) | GI50 (LOX IMVI) | GI50 (NCI-H460) | GI50 (SN12C) | GI50 (IGROV-1) | GI50 (SK-MEL-2) | GI50 (SK-MEL-28) | GI50 (OVCAR-3) | GI50 (COLO 205) | GI50 (MDA-MB-435) | GI50 (PC-3)
1 | CC(=O)ON(C(C)=O)C1C(COC(c2ccccc2)(c2ccccc2)c2ccccc2)OC2OC3(CCCC3)OC21 (configuration not stated) | 5.53 µM (inactive) | 5.38 µM (inactive) | 25.9 µM (inactive) | 7.18 µM (inactive) | 7.8 µM (inactive) | 16.9 µM (inactive) | 3.32 µM (inactive) | 11.6 µM (inactive) | 10.5 µM (inactive) | 4.13 µM (inactive) | 8.18 µM (inactive) | 6.75 µM (inactive) | 5.13 µM (inactive) | > 100 µM (inactive) | 27.2 µM (inactive) | > 100 µM (inactive) | 5.37 µM (inactive) | > 23.2 µM (inactive) | – | –
2 | O=C1OC(CC(=O)c2ccc(Cl)cc2Cl)C(Cl)=C1Cl (configuration not stated) | > 36.1 µM (inactive) | > 49.2 µM (inactive) | > 100 µM (inactive) | 27.2 µM (inactive) | 42.6 µM (inactive) | > 54.7 µM (inactive) | 26.7 µM (inactive) | > 59.2 µM (inactive) | 25.2 µM (inactive) | 25.7 µM (inactive) | 24.5 µM (inactive) | > 57.3 µM (inactive) | 18.9 µM (inactive) | > 41 µM (inactive) | 19.8 µM (inactive) | 19.1 µM (inactive) | 33.8 µM (inactive) | 20.8 µM (inactive) | – | –
3 | O=S(=O)(/C=C/C=C/S(=O)(=O)c1ccccc1)c1ccccc1 | 8 µM (inactive) | 17.5 µM (inactive) | – | 0.507 µM (active) | 1.65 µM (inactive) | 1.72 µM (inactive) | 0.256 µM (active) | 6.76 µM (inactive) | 1.7 µM (inactive) | 0.151 µM (active) | 0.713 µM (active) | 6.1 µM (inactive) | 2 µM (inactive) | 4.56 µM (inactive) | 2.72 µM (inactive) | 1.32 µM (inactive) | 0.721 µM (active) | 1.44 µM (inactive) | 1.45 µM (inactive) | 4.68 µM (inactive)
4 | Cc1ccc(SC2C(C)(C)N(C(C)C)P2(=O)N(C(C)C)C(C)C)cc1 (configuration not stated) | > 100 µM (inactive) | 51.5 µM (inactive) | > 100 µM (inactive) | 71.4 µM (inactive) | > 64.9 µM (inactive) | 26.4 µM (inactive) | 14.7 µM (inactive) | > 100 µM (inactive) | 52 µM (inactive) | 31.8 µM (inactive) | 28 µM (inactive) | 27.5 µM (inactive) | 38.6 µM (inactive) | > 86.3 µM (inactive) | 67 µM (inactive) | > 95.7 µM (inactive) | 55.5 µM (inactive) | > 43.7 µM (inactive) | – | –
5 | N#Cc1ccc(Sc2ccccc2)cc1C#N | 54 µM (inactive) | 39.3 µM (inactive) | > 100 µM (inactive) | > 100 µM (inactive) | > 100 µM (inactive) | > 100 µM (inactive) | > 100 µM (inactive) | 36.9 µM (inactive) | 22.6 µM (inactive) | 18.1 µM (inactive) | 19.9 µM (inactive) | 22.2 µM (inactive) | 60.3 µM (inactive) | > 100 µM (inactive) | > 100 µM (inactive) | > 100 µM (inactive) | > 100 µM (inactive) | 33.2 µM (inactive) | – | –
6 | COC(=O)[C@H](C)NC(=O)[C@H](CSC)N1C(=O)N[C@@H](C(C)C)C1=O | > 100 µM (inactive) | > 100 µM (inactive) | – | > 100 µM (inactive) | > 100 µM (inactive) | > 100 µM (inactive) | – | > 100 µM (inactive) | – | 29.6 µM (inactive) | > 100 µM (inactive) | 71.3 µM (inactive) | > 100 µM (inactive) | > 100 µM (inactive) | > 100 µM (inactive) | > 100 µM (inactive) | > 100 µM (inactive) | > 100 µM (inactive) | > 100 µM (inactive) | > 100 µM (inactive)
7 | Cc1ccc(CS(=O)(=O)C/N=C2\Sc3ccccc3N\C2=C/C(=O)c2ccc(Cl)cc2)cc1 | > 10 µM (inactive) | > 10 µM (inactive) | – | > 10 µM (inactive) | 5.47 µM (inactive) | – | 1 µM (active) | 8.22 µM (inactive) | 7.1 µM (inactive) | 1 µM (active) | > 10 µM (inactive) | – | > 10 µM (inactive) | > 10 µM (inactive) | – | > 10 µM (inactive) | > 10 µM (inactive) | > 10 µM (inactive) | > 10 µM (inactive) | > 10 µM (inactive)
8 | O=C(NC1CCCCC1)N1CCNC1=S | > 100 µM (inactive) | – | > 100 µM (inactive) | > 100 µM (inactive) | > 100 µM (inactive) | 9.53 µM (inactive) | > 100 µM (inactive) | > 100 µM (inactive) | > 100 µM (inactive) | > 100 µM (inactive) | > 100 µM (inactive) | > 100 µM (inactive) | > 100 µM (inactive) | > 100 µM (inactive) | 2.94 µM (inactive) | > 100 µM (inactive) | > 100 µM (inactive) | > 100 µM (inactive) | > 100 µM (inactive) | –
9 | O=S(O)CCCCSSCc1ccccc1CSSCCCCS(=O)O | > 100 µM (inactive) | 56.2 µM (inactive) | 40.7 µM (inactive) | 10.3 µM (inactive) | 4.21 µM (inactive) | 22.2 µM (inactive) | 5.69 µM (inactive) | 35.3 µM (inactive) | 12.5 µM (inactive) | 3.88 µM (inactive) | 10.5 µM (inactive) | 51.9 µM (inactive) | 26 µM (inactive) | 49.4 µM (inactive) | 35.2 µM (inactive) | 13.1 µM (inactive) | 10.5 µM (inactive) | 15.5 µM (inactive) | – | –
10 | C/C(=N/N)c1sc(-c2nc(C)c(/C(C)=N\N)s2)nc1C | > 100 µM (inactive) | > 100 µM (inactive) | > 100 µM (inactive) | > 95.3 µM (inactive) | > 100 µM (inactive) | > 100 µM (inactive) | 30.1 µM (inactive) | > 100 µM (inactive) | > 100 µM (inactive) | 27.2 µM (inactive) | 39.5 µM (inactive) | 59.3 µM (inactive) | > 100 µM (inactive) | > 100 µM (inactive) | > 100 µM (inactive) | > 100 µM (inactive) | > 100 µM (inactive) | > 46.1 µM (inactive) | – | –
11 | CC(NC(=O)C(C)C(=O)Nc1ccc(C(F)(F)F)cc1)C(N)=O (configuration not stated) | > 100 µM (inactive) | 94 µM (inactive) | – | > 100 µM (inactive) | – | > 100 µM (inactive) | > 100 µM (inactive) | – | > 100 µM (inactive) | > 100 µM (inactive) | – | > 100 µM (inactive) | > 100 µM (inactive) | > 100 µM (inactive) | > 100 µM (inactive) | – | – | > 100 µM (inactive) | > 100 µM (inactive) | > 100 µM (inactive)
12 | CN(c1c(Cl)cccc1Cl)S(=O)(=O)c1ccccc1[N+](=O)[O-] | > 100 µM (inactive) | > 100 µM (inactive) | – | > 100 µM (inactive) | > 100 µM (inactive) | > 100 µM (inactive) | > 10 µM (inactive) | > 100 µM (inactive) | > 100 µM (inactive) | – | > 100 µM (inactive) | > 100 µM (inactive) | > 100 µM (inactive) | > 100 µM (inactive) | > 100 µM (inactive) | > 100 µM (inactive) | > 100 µM (inactive) | > 100 µM (inactive) | > 100 µM (inactive) | > 100 µM (inactive)
13 | CN(C)CN(C)c1nc(N(C)C)nc(N(C)C)n1 | > 100 µM (inactive) | > 100 µM (inactive) | > 100 µM (inactive) | > 100 µM (inactive) | > 100 µM (inactive) | > 100 µM (inactive) | > 100 µM (inactive) | > 100 µM (inactive) | > 100 µM (inactive) | > 100 µM (inactive) | > 100 µM (inactive) | > 100 µM (inactive) | > 100 µM (inactive) | > 100 µM (inactive) | > 100 µM (inactive) | > 100 µM (inactive) | > 100 µM (inactive) | > 100 µM (inactive) | – | –
14 | CCCN(CCC)C(=S)Sc1nc(C)nc(N2CCN(c3nc(C)nc(SC(=S)N(CCC)CCC)c3[N+](=O)[O-])CC2)c1[N+](=O)[O-] | 56.4 µM (inactive) | 22.6 µM (inactive) | – | 15.2 µM (inactive) | 17.3 µM (inactive) | 30.5 µM (inactive) | 3.1 µM (inactive) | 29.4 µM (inactive) | 18.8 µM (inactive) | 0.628 µM (active) | 0.421 µM (active) | 23.9 µM (inactive) | 8.77 µM (inactive) | 11.4 µM (inactive) | 7.16 µM (inactive) | 15.3 µM (inactive) | – | 0.262 µM (active) | 4.82 µM (inactive) | 15.2 µM (inactive)
15 | COc1ccc(C)cc(O)c1=O | > 100 µM (inactive) | 95.1 µM (inactive) | 38.4 µM (inactive) | 21.2 µM (inactive) | 45 µM (inactive) | 38.8 µM (inactive) | 19.1 µM (inactive) | 54.6 µM (inactive) | 28.6 µM (inactive) | 10.7 µM (inactive) | 11.9 µM (inactive) | 17.7 µM (inactive) | 38.5 µM (inactive) | 39.9 µM (inactive) | 94.8 µM (inactive) | 57.4 µM (inactive) | 31.6 µM (inactive) | 30.8 µM (inactive) | – | –
16 | Nc1ncnc2c1ncn2C1CCC(CP(=O)(O)O)C1 (configuration not stated) | > 100 µM (inactive) | > 100 µM (inactive) | – | > 100 µM (inactive) | > 100 µM (inactive) | > 100 µM (inactive) | > 100 µM (inactive) | > 100 µM (inactive) | > 100 µM (inactive) | – | > 100 µM (inactive) | > 100 µM (inactive) | > 100 µM (inactive) | > 100 µM (inactive) | > 100 µM (inactive) | > 100 µM (inactive) | > 100 µM (inactive) | > 100 µM (inactive) | > 100 µM (inactive) | > 100 µM (inactive)
